Experimental data taken from patent publication US20140088124A1, “IMIDAZOLE DERIVATIVES” (priority 2011, published 2014).

Target: T1, human DGAT1 (Homo sapiens, UniProt O75907)
T1 sequence (O75907 1-488): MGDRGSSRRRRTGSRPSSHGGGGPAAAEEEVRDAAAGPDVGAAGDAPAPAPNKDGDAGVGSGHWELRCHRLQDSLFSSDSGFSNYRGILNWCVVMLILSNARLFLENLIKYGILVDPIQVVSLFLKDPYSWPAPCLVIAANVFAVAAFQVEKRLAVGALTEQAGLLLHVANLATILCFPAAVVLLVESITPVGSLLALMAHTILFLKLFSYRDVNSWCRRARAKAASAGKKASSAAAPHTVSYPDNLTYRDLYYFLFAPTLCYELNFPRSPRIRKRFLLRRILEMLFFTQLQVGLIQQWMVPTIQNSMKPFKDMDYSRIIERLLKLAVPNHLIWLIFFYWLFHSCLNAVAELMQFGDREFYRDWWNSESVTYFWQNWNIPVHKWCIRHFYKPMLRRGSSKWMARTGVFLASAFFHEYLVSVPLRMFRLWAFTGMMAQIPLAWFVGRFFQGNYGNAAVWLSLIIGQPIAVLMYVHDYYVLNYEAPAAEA
Assay: DGAT1 CPM Assay
Assay type: biochemical
Conditions: human DGAT1, CPM fluorescence, 1 hour incubation at room temperature
Procedure: 20 uL of 90 uM CPM reagent in 90% ethanol was added after 1 hour incubation at room temperature.

| SMILES | IC50 [nM] |
| --- | --- |
| O=C(O)C[C@H]1CC[C@@H](O[C@@H]2CC3C[C@H]2CN3c2ccc(-c3nc4cc(F)ccc4[nH]3)cn2)CC1 (single isomer, unassigned; enantiomer 2) [Example 29, [cis-4-({2-[5-(5-fluoro-1H-benzimidazol-2-yl)pyridin-2-yl]-2-azabicyclo[2.2.1]hept-5-yl}oxy)cyclohexyl]acetic acid enantiomer 2] | 5000 |
| O=C(O)C[C@H]1CC[C@H](OC2CCN(c3ccc(-c4nc5cc(Cl)cnc5[nH]4)cn3)CC2)CC1 [Example 20] | 61 |
| Cc1nc(N2CCC(O[C@H]3CC[C@H](CC(=O)O)CC3)CC2)ccc1-c1nc2ccccc2[nH]1 [Example 10] | 7900 |
| O=C(O)C[C@H]1CC[C@H](OC2CCN(c3ccc(-c4nc5cc(C(F)(F)F)cnc5[nH]4)cn3)CC2)CC1 [Example 17] | 24 |
| COc1ccc2nc(-c3ccc(N4CCC(OCC5(C(=O)O)CCC5)CC4)nc3)[nH]c2n1 [Example 44] | 89 |
| N#Cc1ccc2[nH]c(-c3ccc(N4CCC(OC5CC(C(=O)O)(C(=O)O)C5)CC4)nc3)nc2c1 [Example 96] | 277 |
| CC(C)(COC1CCN(c2ccc(-c3nc4ccccc4[nH]3)cn2)CC1)C(=O)O [Example 36] | 67 |
| Cc1ccc2[nH]c(-c3ccc(N4CCC(OC5CC(C(=O)O)(C(=O)O)C5)CC4)nc3)nc2n1 [Example 97] | 1000 |
| COc1ccc2[nH]c(-c3ccc(N4CCC(O[C@H]5CC[C@H](CC(=O)O)CC5)CC4)nc3)nc2n1 [Example 22] | 51 |
| CC(C)(COC1CCN(c2ccc(-c3nc4cc(Cl)cnc4[nH]3)cn2)CC1)C(=O)O [Example 63] | 118 |
| C[C@]1(C(=O)O)CC[C@@H](OC2CCN(c3ccc(-c4nc5ccccc5[nH]4)cn3)CC2)CC1 [Example 105, cis-4-({1-[5-(1H-benzimidazol-2-yl)pyridin-2-yl}piperidin-4-yl]oxy)-1-methylcyclohexanecarboxylic acid] | 44 |
| O=C(O)CC1CC(OC2CCN(c3ccc(-c4nc5cc(F)ccc5[nH]4)cn3)CC2)C1 (stereo not drawn) [Example 54] | 51 |
| O=C(O)C1(C(=O)O)CC(OC2CCN(c3ccc(-c4nc5cc(F)c(F)cc5[nH]4)cn3)CC2)C1 [Example 94] | 122 |
| O=C(O)C[C@H]1CC[C@H](O[C@H]2CCN(c3ccc(-c4nc5cc(F)ccc5[nH]4)cn3)C2)CC1 [Example 138] | 45 |
| CC(C)(COC1CCN(c2ccc(-c3nc4cc(C(F)(F)F)cnc4[nH]3)cn2)CC1)C(=O)O [Example 61] | 46 |
| CC(C)(COC1CCN(c2ccc(-c3nc4cc(C#N)ccc4[nH]3)cn2)CC1)C(=O)O [Example 62] | 90 |
| COC(=O)c1cccc(OC2CCN(c3ccc(-c4nc5cc(C(F)(F)F)ccc5[nH]4)cn3)CC2)c1 [Example 113, Methyl 3-[(1-{5-[5-(trifluoromethyl)-1H-benzimidazol-2-yl]pyridin-2-yl}piperidin-4-yl)oxy]benzoate] | 520 |
| Cc1ccc2[nH]c(-c3ccc(N4CCC(O[C@H]5CC[C@@](C)(C(=O)O)CC5)CC4)nc3)nc2n1 [Example 110] | 425 |
| COc1ccc2[nH]c(-c3ccc(N4CCC(OCC(C)(C)C(=O)O)CC4)nc3)nc2n1 [Example 66] | 140 |
| Cc1ccc2[nH]c(-c3ccc(N4CCC(OCC(C)(C)C(=O)O)CC4)nc3)nc2n1 [Example 65] | 790 |
| O=C(O)C1(C(=O)O)CC(OC2CCN(c3ccc(-c4nc5cc(F)ccc5[nH]4)cn3)CC2)C1 [Example 93] | 71 |
| Cc1ccc2[nH]c(-c3ccc(N4CCC(O[C@H]5CC[C@H](CC(=O)O)CC5)CC4)nc3)nc2n1 [Example 21] | 440 |
| O=C(O)C[C@H]1CC[C@@H](OC2CCN(c3ccc(-c4nc5cc(Cl)ccc5[nH]4)cn3)CC2)CC1 [Example 26] | 3 |

Next, values leading:

| IC50 [nM] | SMILES |
| --- | --- |
| 23 | CC1(S(=O)(=O)NC(=O)[C@H]2CC[C@H](OC3CCN(c4ccc(-c5nc6cc(F)ccc6[nH]5)cn4)CC3)CC2)CC1 [Example 80, trans-4-({1-[5-(5-fluoro-1H-benzimidazol-2-yl)pyridin-2-yl]piperidin-4-yl}oxy)-N-[(1-methylcyclopropyl)sulfonyl]cyclohexanecarboxamide] |
| 2 | O=C(O)c1ccc(OC2CCN(c3ccc(-c4nc5cc(Cl)ccc5[nH]4)cn3)CC2)cc1 [Example 131] |
| 8 | O=C(O)C1(COC2CCN(c3ccc(-c4nc5ccc(C(F)(F)F)cc5[nH]4)cn3)CC2)CC1 [Example 38] |
| 13 | O=C(O)C[C@H]1CC[C@@H](OC2CCN(c3ccc(-c4nc5nc(C(F)(F)F)ccc5[nH]4)cn3)CC2)CC1 [Example 27] |
| 2 | O=C(O)C1(COC2CCN(c3ccc(-c4nc5ccc(C(F)(F)F)cc5[nH]4)cn3)CC2)CCC1 [Example 37] |
| 6 | C[C@]1(C(=O)O)C[C@@H](OC2CCN(c3ccc(-c4nc5cc(C(F)(F)F)ccc5[nH]4)cn3)CC2)C1 [Example 104] |
| 2 | O=C(O)C[C@H]1CC[C@H](OC2CCN(c3ccc(-c4nc5cc(F)c(F)c(Br)c5[nH]4)cn3)CC2)CC1 [Example 15] |
| 21 | C[C@]1(C(=O)O)CC[C@@H](OC2CCN(c3ccc(-c4nc5cc(F)ccc5[nH]4)cn3)CC2)CC1 [Example 111] |
| 15 | C[C@]1(C(=O)O)CC[C@@H](OC2CCN(c3ccc(-c4nc5cc(F)c(F)cc5[nH]4)cn3)CC2)CC1 [Example 106] |
| 7 | O=C(O)C1(COC2CCN(c3ccc(-c4nc5ccc(C(F)(F)F)cc5[nH]4)cn3)CC2)CCOCC1 [Example 45] |
| 12 | O=C(O)C[C@H]1CC[C@@H](OC2CCN(c3ccc(-c4nc5cc(F)ccc5[nH]4)cn3)C2)CC1 (single isomer, unassigned) [Example 139] |
| 5 | O=C(O)C[C@H]1CC[C@@H](OC2CCN(c3ccc(-c4nc5ccc(C(F)(F)F)cc5[nH]4)cn3)CC2)CC1 [Example 5] |
| 5 | O=C1CN([C@H]2CC[C@H](OC3CCN(c4ccc(-c5nc6cc(C(F)(F)F)ccc6[nH]5)cn4)CC3)CC2)S(=O)(=O)N1 [Example 118] |
| 6 | O=C(O)[C@@H]1[C@@H]2C[C@@H](OC3CCN(c4ccc(-c5nc6cc(C(F)(F)F)ccc6[nH]5)cn4)CC3)C[C@@H]21 [Example 136] |
| 35 | CCOC(=O)[C@H]1CC[C@H](OC2CCN(c3ccc(-c4nc5cc(Cl)ccc5[nH]4)cn3)CC2)CC1 [Example 72] |
| 7 | O=C(O)C[C@H]1CC[C@H](OC2CCN(c3ccc(-c4nc5cccc(Br)c5[nH]4)cn3)CC2)CC1 [Example 14] |
| 28 | O=C(O)c1cncc(OC2CCN(c3ccc(-c4nc5cc(C(F)(F)F)ccc5[nH]4)cn3)CC2)c1 [Example 115, 5-[(1-{5-[5-(trifluoromethyl)-1H-benzimidazol-2-yl]pyridin-2-yl}piperidin-4-yl)oxy]pyridine-3-carboxylic acid] |
| 2 | O=C(O)c1ccc(OC2CCN(c3ccc(-c4nc5ccc(C(F)(F)F)cc5[nH]4)cn3)CC2)nc1 [Example 123] |
| 16 | CC(C)(COC1CCN(c2ccc(-c3nc4cc(F)c(F)cc4[nH]3)cn2)CC1)C(=O)O [Example 60] |
| 2 | O=C(O)[C@H]1CC[C@@H](OC2CCN(c3ccc(-c4nc5cc(C(F)(F)F)ccc5[nH]4)cn3)CC2)CC1 [Example 68, cis-4-[(1-{5-[5-(trifluoromethyl)-1H-benzimidazol-2-yl]pyridin-2-yl}piperidin-4-yl)oxy]cyclohexanecarboxylic acid] |
| 11 | O=C(O)[C@H]1CC[C@H](OC2CCN(c3ccc(-c4nc5ccc(C(F)(F)F)nc5[nH]4)cn3)CC2)CC1 [Example 70, trans-4-[(1-{5-[5-(trifluoromethyl)-3H-imidazo[4,5-b]pyridin-2-yl]pyridin-2-yl}piperidin-4-yl)oxy]cyclohexanecarboxylic acid] |
| 7 | O=C(NS(=O)(=O)C(F)(F)F)[C@H]1CC[C@H](OC2CCN(c3ccc(-c4nc5cc(F)ccc5[nH]4)cn3)CC2)CC1 [Example 91] |
| 9 | O=C(O)c1cccc(OC2CCN(c3ccc(-c4nc5cc(C(F)(F)F)ccc5[nH]4)cn3)CC2)c1 [Example 114, 3-[(1-{5-[5-(trifluoromethyl)-1H-benzimidazol-2-yl]pyridin-2-yl}piperidin-4-yl)oxy]benzoic acid] |
| 4 | O=C(NS(=O)(=O)c1ccc(Cl)cc1)[C@H]1CC[C@H](OC2CCN(c3ccc(-c4nc5cc(F)ccc5[nH]4)cn3)CC2)CC1 [Example 89] |
| 7 | O=C(O)[C@H]1C[C@H](OC2CCN(c3ccc(-c4nc5ccc(C(F)(F)F)cc5[nH]4)cn3)CC2)C1 [Example 33, trans-3-[(1-{5-[6-(trifluoromethyl)-1H-benzimidazol-2-yl]pyridin-2-yl}piperidin-4-yl)oxy]cyclobutanecarboxylic acid] |
